What was measured:
[1] = tested on: ROS 17/2.8 osteoblast-like cells; assay: Cyclic AMP production in ROS 17/2.8 osteoblast-like cells; type: cell-based, rat; settings: for Cyclic AMP, effect of fragment (experimental value/control value): control 29 ± 5.2 pmol/mg of protein
Protocol: When cultures of the widely used model for osteoblasts, the osteoblast-likeclone of rat osteosarcoma, ROS 17/2.8 (Endocrinology (Baltimore), 107 (1980) 1494-1503=12; Majeska et al.), were incubated with full-length PTH and PTH fragments (Table 4), cyclic AMP production was stimulated only by bPTH(1-84) and hPTH(1-34), whereas hPTH(25-39), hPTH(27-48), hPTH(28-48) and hPTH(34-47) were ineffective.

[2] = tested on: ROS 17/2.8 osteoblast-like cells; assay: DNA synthesis in ROS 17/2.8 osteoblast-like cells; type: cell-based, rat; settings: control 392 ± 58 c.p.m./μg of DNA
[3] = tested on: ROS 17/2.8 osteoblast-like cells; assay: CK specific activity in ROS 17/2.8 osteoblast-like cells; type: cell-based, rat; settings: control 698 ± 70 nmol/min per mg of protein
[4] = tested on: rat epiphysial cartilage cell cultures; assay: CK specific activity in rat epiphysial cartilage cell cultures; type: cell-based; settings: for CK specific activity: 100 nM, control 225 ± 32
Protocol: To compare the stimulations seen in osteoblast-like cells (FIGS. 10 and 11) with PTH effects in a cartilage system, cultures of rat epiphysial cartilage cells were incubated with full-length PTH and selected PTH fragments (Table 3). CK activity was stimulated by bPTH(1-84) and hPTH(28-48) but not by hPTH(25-39) or hPTH(34-47). […] The comparison between the complete molecule and the mid-regional fragment hPTH (28-48) is similar to but not identical with the results obtained for calvaria cell cultures (FIGS. 10 and 11) and in the chick sternum chondrocyte system; cf. Biochem. J., 252 (1988) 263-268 (11; Farndale et al.),

[5] = tested on: rat organs (epiphysis, diaphysis, kidney); assay: [3H]thymidine incorporation into DNA in rat organs after i.p. injection; type: in vivo; settings: 22-24 h after injection
Protocol: FIG. 12 is a graph showing the time course of stimulation by hPTH (1-34) of DNA synthesis in rat organs. Female rats (20-25 days old) were injected i.p. with hPTH-(1-34) (2 μg/rat). At 2 h before the times indicated, the rats were killed and organs were removed and incubated in 2 ml of Dulbecco's modified Eagle's medium containing 5 μl of [^3 H]thymidine. (Amersham: 5 Ci/mmol) for 2 h, then washed with medium and homogenized in deionized distilled water. The total uptake of [^3 H]thymidine and acid-insoluble radioactivity was measured, as well as DNA content, as described below. , Diaphysis; O, epiphysis; Δ; kidney. P<0.01 versus controls.
The pieces were then incubated for 2 h more (the time indicated in FIG. 12) with [^3 H]thymidine (5 μci/ml; 5 Ci/mmol) at 37° C. in Dulbecco's modified Eagle's medium under an atmosphere Of […] /95% air. Total [^3 H]thymidine uptake and incorporation into trichloroacetic acid-insoluble material was measured as described in Biochem. J., 214 (1983) 293-298 (16; Somjen et al.). At no time including the 22 24 h pulse, was there any significant change in the total uptake of [^3 H]thymidine which reflects changes in the thymidine pool which, in turn, could account for changes in incorporation. DNA was determined by the Burton method; cf. Biochem. J., 62 (1956) 315-323 (17; Burton).
To corroborate that under the circumstances of these experiments the increase in CK specific activity in bone is indeed a valid marker of cell proliferation, changes in DNA synthesis were measured by [^3 H]thymidine incorporation; cf. Biochem. J., 272 (1990) 781-785 (18; Somjen et al.). The earliest time at which PTH increased [^3 H]thymidine incorporation was determined by in-jecting rats with an optimal dose of 2 μp of PTH(1-34)/rat, equivalent to 13 nM (FIG. 14) and measuring 2 h pulses of [^3 H)thymidine incorporation into DNA (FIG. 12).

[6] = tested on: rat epiphysial cartilage cell cultures; assay: DNA synthesis in rat epiphysial cartilage cell cultures; type: cell-based; settings: for [^3 H]Thymidine incorporation into DNA: 100 nM, control 350 ± 25
[7] = tested on: rat organs (epiphysis, diaphysis, kidney); assay: [3H]thymidine incorporation into DNA in rat organs after i.p. injection; type: in vivo; settings: rat; for [^3 H]thymidine incorporation into DNA, Kidney: control 9.0 ± 2.1; for [^3 H]thymidine incorporation into DNA, Diaphysis: control 24.1 ± 3.8; for [^3 H]thymidine incorporation into DNA, Epiphysis: control 25.8 ± 5.2
[8] = tested on: osteoblast enriched rat embryo calvaria cell cultures; assay: CK specific activity in rat embryo calvaria cell cultures; type: cell-based; settings: for CK specific activity, effect of fragment (experimental value/control value): 100 nM, 24 h, control 457 ± 46 nmol/min per mg of protein; for increase of CK activity (in words): treated for 24 h
Outline: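 Osteoblast-enriched rat embryo calvaria cultures stimulated with PTH fragments from the central portion of the molecule. Cyclic AMP measured 15 min after stimulation; CK specific activity measured 24 h after stimulation. Values are means ±S.E.M., N≥5, compared with controls by Student's T test.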

[9] = 22-24 h after injection of 1.25 μg
[10] = 22-24 h after injection of 0.875 μg
[11] = 22-24 h after injection of 0.876 μg

hPTH(28-48): mid-regional PTH fragment 28-48, human source (LQDVHNFVALGAPLAPRDAGS; Parathyroid hormone; UniProt P01270 59-79, looked up, fragment)
stimulation of cyclic AMP production (in words) [1]: ineffective | Cyclic AMP, effect of fragment (experimental value/control value) ([1]; 400 nM): 1.18 ± 0.28 | [^3 H]Thymidine incorporation, effect of fragment (experimental value/control value) ([2]; 400 nM): 1.56 ± 0.12 | CK specific activity, effect of fragment (experimental value/control value) ([3]; 400 nM): 1.56 ± 0.08 | stimulation of CK activity (in words) [4]: stimulated | CK specific activity [4]: 346 ± 36 nmol/min per mg of protein | potency in stimulating [^3 H]thymidine incorporation in diaphysis and epiphysis (in words) [5]: as potent as bPTH(1-84) | [^3 H]Thymidine incorporation into DNA [6]: 731 ± 44 c.p.m./plate | [^3 H]thymidine incorporation into DNA, Kidney [7, 9]: 11.2 ± 2.7 c.p.m./pg of DNA | [^3 H]thymidine incorporation into DNA, Diaphysis [7, 9]: 39.1 ± 8.1 c.p.m./pg of DNA | [^3 H]thymidine incorporation into DNA, Epiphysis [7, 9]: 46.7 ± 7.4 c.p.m./pg of DNA | CK specific activity, effect of fragment (experimental value/control value) [8]: 2.15 ± 0.15 | increase of CK activity (in words) [8]: maximally active

hPTH(34-47): PTH fragment 34-47, human source; comparative example (FVALGAPLAPRDAG; Parathyroid hormone; UniProt P01270 65-78, looked up, fragment) [reference compound]
stimulation of cyclic AMP production (in words) [1]: ineffective | Cyclic AMP, effect of fragment (experimental value/control value) ([1]; 500 nM): 0.88 ± 0.31 | [^3 H]Thymidine incorporation, effect of fragment (experimental value/control value) ([2]; 500 nM): 1.05 ± 0.11 | CK specific activity, effect of fragment (experimental value/control value) ([3]; 500 nM): 1.07 ± 0.10 | CK specific activity [4]: 236 ± 32 nmol/min per mg of protein | potency in stimulating [^3 H]thymidine incorporation in diaphysis and epiphysis (in words) [5]: inactive | stimulation of DNA synthesis (in words) [6]: stimulated by all molecules tested except | [^3 H]Thymidine incorporation into DNA [6]: 356 ± 75 c.p.m./plate | [^3 H]thymidine incorporation into DNA, Kidney [7, 10]: 9.0 ± 1.9 c.p.m./pg of DNA | [^3 H]thymidine incorporation into DNA, Diaphysis [7, 10]: 28.6 ± 4.2 c.p.m./pg of DNA | [^3 H]thymidine incorporation into DNA, Epiphysis [7, 10]: 28.0 ± 7.2 c.p.m./pg of DNA | increase of CK activity (in words) [8]: inactive

hPTH(25-39): PTH fragment 25-39, human source (RKKLQDVHNFVALGA; Parathyroid hormone; UniProt P01270 56-70, looked up, fragment)
stimulation of cyclic AMP production (in words) [1]: ineffective | Cyclic AMP, effect of fragment (experimental value/control value) ([1]; 200 nM): 1.05 ± 0.15 | [^3 H]Thymidine incorporation, effect of fragment (experimental value/control value) ([2]; 200 nM): 1.36 ± 0.08 | CK specific activity, effect of fragment (experimental value/control value) ([3]; 200 nM): 1.71 ± 0.08 | CK specific activity [4]: 268 ± 36 nmol/min per mg of protein | potency in stimulating [^3 H]thymidine incorporation in diaphysis and epiphysis (in words) [5]: as potent as hPTH(28-48) | [^3 H]Thymidine incorporation into DNA [6]: 544 ± 44 c.p.m./plate | [^3 H]thymidine incorporation into DNA, Kidney [7, 11]: 11.2 ± 1.9 c.p.m./pg of DNA | [^3 H]thymidine incorporation into DNA, Diaphysis [7, 11]: 44.8 ± 4.5 c.p.m./pg of DNA | [^3 H]thymidine incorporation into DNA, Epiphysis [7, 11]: 48.4 ± 6.6 c.p.m./pg of DNA | CK specific activity, effect of fragment (experimental value/control value) [8]: 2.15 ± 0.24
